Results as given in US8969516B2, “Method of hydrolysis of peptide bond” (priority 2006, dated 2015).

Assay: MALDI-TOF screening of Ni^2+ dependent hydrolysis in a combinatorial peptide library
Assay type: physicochemical
Details: CH3CO-Gly-Ala-Ser-X-His-Z-Lys-Phe-Leu-NH2 library, Ni^2+ 2 mM, pH 8.2, 10 mM Tris, score=24/tm
Text: The sequence CH3CO-Gly-Ala-Ser/Thr-X-His-Z-Lys-Phe-Leu-NH2 was designed so that the fixed R1 and R2 sequences, CH3CO-Gly-Ala, and Lys-Phe-Leu-NH2, respectively, allowed optimal detection by MALDI-TOF mass spectrometry of substrates as well as expected products, Ser/Thr-X-His-Z-Lys-Phe-Leu-NH2 and assured separation between the clusters of signals for substrates and products in sublibraries (see below).
Residues in position X included all amino acids commonly present in proteins, except for Asp, Glu, and Cys. The former two contain carboxylates in their side chains, which may bind Ni^2+ in a way which would quench or slow down the hydrolysis reaction. The Cys residue may do the same, and also may engage in side reactions with Ni^2+ ions, including redox processes (for example see Bal and Kasprzak, Toxicol. Lett. 2002, 127, 55-62). Only the Cys residue was eliminated from position Z, for the same reasons.
The synthesis of the library was accomplished on a RINK amide resin (Novabiochem) on a 800 mg scale, according to a typical Fmoc protocol (Fields, Meth. Enzymol. Vol. 289). The resin-attached Leu-Phe-Lys peptide was synthesised first and coupled with the isokinetic mixture of 19 amino acids selected for position Z, and then with the H is residue. The resin carrying the library of pentapeptides was divided into Ser and Thr halves at this stage, and each of these halves into 17 portions, which were coupled with individual amino acids selected for position X. The coupling with Ser or Thr as appropriate, additions of Ala and Gly residues, acetylation of Gly, deprotection and cleavage from the resin were accomplished subsequently. Each of the resulting 34 samples of sublibraries randomized at position X was separated into two portions, one for the reaction at 37° C. and another for the reaction at 45° C. The hydrolysis reactions were accomplished in 10 mM Tris buffers at pH 8.2. The total concentrations of peptide mixtures and Ni^2+ ions were 1 mM and 2 mM, respectively. The pH for the reaction was chosen as selective for highly reactive sequences.
The detection of reaction products was accomplished with the use of a MALDI-TOF mass spectrometer (Micromass). The aliquots were removed from reaction mixtures and measured by MS at 2, 4, 6, and 8 hours of incubation. The progress of reaction was evaluated by visual detection in mass spectra of appearance of signals corresponding to expected products of hydrolysis, Ser/Thr-X-His-Z-Lys-Phe-Leu-NH2, at given measurement times, tm. […] Also the decrease of signals of substrates was controlled in these cases.
Residues X and Z were then sorted according to various molecular parameters, describing their physical properties (Carugo, In Silico Biol. 2003, 3, 0035). […] The Ser library provided a higher number of reactive peptides than the Thr library. Following the additivity of effects, the scores were also summed up in lines and columns of Table 1A-D, thereby creating final rankings for preferred substitutions in positions X and Z.

Substance	hydrolysis score from MALDI-TOF screening (37° C.)	hydrolysis score from MALDI-TOF screening (45° C.)
Ac-GASGHQKFL-NH2 [SGHQ]	0 (a score of 0 if no trace of the product of hydrolysis was seen after 8 hours of incubation)	0 (a score of 0 if no trace of the product of hydrolysis was seen after 8 hours of incubation)
Ac-GASGHRKFL-NH2 [SGHR]	3 (a score of 3 for detection at 8 hours)	3 (a score of 3 for detection at 8 hours)
Ac-GASGHSKFL-NH2 [SGHS]	0 (a score of 0 if no trace of the product of hydrolysis was seen after 8 hours of incubation)	0 (a score of 0 if no trace of the product of hydrolysis was seen after 8 hours of incubation)
Ac-GASGHTKFL-NH2 [SGHT]	0 (a score of 0 if no trace of the product of hydrolysis was seen after 8 hours of incubation)	0 (a score of 0 if no trace of the product of hydrolysis was seen after 8 hours of incubation)
Ac-GASGHVKFL-NH2 [SGHV]	0 (a score of 0 if no trace of the product of hydrolysis was seen after 8 hours of incubation)	3 (a score of 3 for detection at 8 hours)
Ac-GASGHWKFL-NH2 [SGHW]	3 (a score of 3 for detection at 8 hours)	4 (a score of 4 for detection at 6 hours)
Ac-GASGHYKFL-NH2 [SGHY]	0 (a score of 0 if no trace of the product of hydrolysis was seen after 8 hours of incubation)	0 (a score of 0 if no trace of the product of hydrolysis was seen after 8 hours of incubation)
Ac-GASHHDKFL-NH2 [SHHD]	0 (a score of 0 if no trace of the product of hydrolysis was seen after 8 hours of incubation)	0 (a score of 0 if no trace of the product of hydrolysis was seen after 8 hours of incubation)
Ac-GASHHEKFL-NH2 [SHHE]	0 (a score of 0 if no trace of the product of hydrolysis was seen after 8 hours of incubation)	0 (a score of 0 if no trace of the product of hydrolysis was seen after 8 hours of incubation)
Ac-GASHHFKFL-NH2 [SHHF]	3 (a score of 3 for detection at 8 hours)	3 (a score of 3 for detection at 8 hours)
Ac-GASHHGKFL-NH2 [SHHG]	3 (a score of 3 for detection at 8 hours)	0 (a score of 0 if no trace of the product of hydrolysis was seen after 8 hours of incubation)
Ac-GASHHHKFL-NH2 [SHHH]	0 (a score of 0 if no trace of the product of hydrolysis was seen after 8 hours of incubation)	0 (a score of 0 if no trace of the product of hydrolysis was seen after 8 hours of incubation)
Ac-GASHHIKFL-NH2 [SHHI]	6 (a score of 6 for detection at 4 hours)	6 (a score of 6 for detection at 4 hours)
Ac-GASHHKKFL-NH2 [SHHK]	6 (a score of 6 for detection at 4 hours)	12 (a score of 12, if it was seen to be partially hydrolysed at 2 hours)
Ac-GASHHLKFL-NH2 [SHHL]	6 (a score of 6 for detection at 4 hours)	6 (a score of 6 for detection at 4 hours)
Ac-GASHHMKFL-NH2 [SHHM]	0 (a score of 0 if no trace of the product of hydrolysis was seen after 8 hours of incubation)	0 (a score of 0 if no trace of the product of hydrolysis was seen after 8 hours of incubation)
Ac-GASHHNKFL-NH2 [SHHN]	0 (a score of 0 if no trace of the product of hydrolysis was seen after 8 hours of incubation)	0 (a score of 0 if no trace of the product of hydrolysis was seen after 8 hours of incubation)
Ac-GASHHPKFL-NH2 [SHHP]	0 (a score of 0 if no trace of the product of hydrolysis was seen after 8 hours of incubation)	0 (a score of 0 if no trace of the product of hydrolysis was seen after 8 hours of incubation)
Ac-GASHHQKFL-NH2 [SHHQ]	0 (a score of 0 if no trace of the product of hydrolysis was seen after 8 hours of incubation)	0 (a score of 0 if no trace of the product of hydrolysis was seen after 8 hours of incubation)
Ac-GASHHRKFL-NH2 [SHHR]	4 (a score of 4 for detection at 6 hours)	6 (a score of 6 for detection at 4 hours)
Ac-GASHHSKFL-NH2 [SHHS]	0 (a score of 0 if no trace of the product of hydrolysis was seen after 8 hours of incubation)	0 (a score of 0 if no trace of the product of hydrolysis was seen after 8 hours of incubation)
Ac-GASHHTKFL-NH2 [SHHT]	0 (a score of 0 if no trace of the product of hydrolysis was seen after 8 hours of incubation)	0 (a score of 0 if no trace of the product of hydrolysis was seen after 8 hours of incubation)
Ac-GASHHVKFL-NH2 [SHHV]	6 (a score of 6 for detection at 4 hours)	6 (a score of 6 for detection at 4 hours)
Ac-GASHHWKFL-NH2 [SHHW]	6 (a score of 6 for detection at 4 hours)	12 (a score of 12, if it was seen to be partially hydrolysed at 2 hours)
Ac-GASHHYKFL-NH2 [SHHY]	3 (a score of 3 for detection at 8 hours)	4 (a score of 4 for detection at 6 hours)
Ac-GASIHAKFL-NH2 [SIHA]	0 (a score of 0 if no trace of the product of hydrolysis was seen after 8 hours of incubation)	0 (a score of 0 if no trace of the product of hydrolysis was seen after 8 hours of incubation)
Ac-GASIHDKFL-NH2 [SIHD]	0 (a score of 0 if no trace of the product of hydrolysis was seen after 8 hours of incubation)	0 (a score of 0 if no trace of the product of hydrolysis was seen after 8 hours of incubation)
Ac-GASIHEKFL-NH2 [SIHE]	0 (a score of 0 if no trace of the product of hydrolysis was seen after 8 hours of incubation)	0 (a score of 0 if no trace of the product of hydrolysis was seen after 8 hours of incubation)
Ac-GASIHFKFL-NH2 [SIHF]	0 (a score of 0 if no trace of the product of hydrolysis was seen after 8 hours of incubation)	0 (a score of 0 if no trace of the product of hydrolysis was seen after 8 hours of incubation)
Ac-GASIHGKFL-NH2 [SIHG]	0 (a score of 0 if no trace of the product of hydrolysis was seen after 8 hours of incubation)	0 (a score of 0 if no trace of the product of hydrolysis was seen after 8 hours of incubation)
